Assay results reported in patent US6063773A, “Cellulose sulfate for use as antimicrobial and contraceptive agent” (Polydex Pharmaceuticals Ltd., priority 1995, dated 2000).

What was measured:
[1] = system: Herpes Simplex Virus (HSV); conditions: known from the art; cited from earlier work
HIV [2] = conditions: known from the art; cited from earlier work
rabbit spermatozoa = test: Fertilization outcome after artificial insemination of spermatozoa pretreated with polysaccharides; type: in vivo; conditions: for anti-fertility effect of treating spermatozoa: spermatozoa treated with comparator polysaccharide
Source text: FIG. 1 is a table showing fertilization outcome after artificial insemination of spermatozoa pretreated with different polysaccharides.
FIG. 1 illustrates the antifertility effect of cellulose sulfate on rabbit spermatozoa at a concentration as low as 0.1%.

[3] = if used frequently; cited from earlier work
human spermatozoa = test: Acrosome reaction of human spermatozoa; type: cell-based; conditions: FIG. 4
Source text: FIG. 4 is a table illustrating the influence of cellulose sulfate on acrosome reaction of human spermatozoa.
Acrosome refers to the anterior organelle of the sperm head necessary for fertilization of an egg by the sperm.

conception in rabbits = test: Contraceptive efficacy when applied vaginally; type: in vivo, rabbit
Source text: FIG. 2 is a table showing the contraceptive efficacy of cellulose sulfate when applied vaginally.

spermatozoa = test: Cervical mucus penetration experiments; type: cell-based; conditions: 1% concentration, in vitro, FIG. 3
Source text: FIG. 3 is a table providing the results of cervical mucus penetration experiments.

HSV = HSV infectivity experiments; type: cell-based; conditions: in vitro, FIG. 6
Source text: FIG. 6 is a table providing the results of HSV infectivity experiments.

HIV [4] = test: HIV inhibition assay; type: cell-based; conditions: concentration of 0.005%, in vitro, FIG. 5
Source text: FIG. 5 is a table illustrating the results of HIV inhibition assay experiments.

[5] = system: chlamydial infection of HeLa cells; test: Anti-chlamydial effect, chlamydial infection of HeLa cells; type: cell-based; conditions: 100 μg/ml, FIG. 9
Description: FIG. 9 is a table illustrating anti-chlamydial effects of cellulose sulfate .
FIG. 9 illustrates anti-chlamydial effect of cellulose sulfate. At a concentration of 100 μg/ml, cellulose sulfate inhibits chlamydial infection of HeLa cells by 91%.

N. gonorrhea = test: Infectivity of N. gonorrhea; type: cell-based; conditions: FIG. 7
Source text: FIG. 7 is a table illustrating the effects of cellulose sulfate on the infectivity of N. gonorrhea.
(§1) Moreover, cellulose sulfate of the present invention at 1.8% has no effect on normal vaginal flora, namely Lactobacilli (FIG. 8).

[6] = rabbit, in vivo
Lactobacilli = test: Growth of Lactobacilli; type: cell-based; conditions: 1.8%, FIG. 8
Source text: FIG. 8 is a table illustrating the effects of cellulose sulfate on the growth of Lactobacilli.
as §1

heparin sulfate
HSV inhibition [1]: inhibit HSV infectivity
HIV infectivity in vitro (HIV [2]): inhibit HIV infectivity in vitro

heparin [reference compound]
anti-fertility effect of treating spermatozoa (rabbit spermatozoa): little or no anti-fertility effect

nonoxynol-9
effect on natural vaginal flora [3]: inactivates the natural protective vaginal flora
irritation of vaginal mucus membrane [3]: causes irritation to the mucus membrane of the vagina

cellulose sulfate
acrosomal loss in human spermatozoa (human spermatozoa): induces acrosomal loss in human spermatozoa, and to a significantly greater extent than heparin or dextran sulfate
percentage of fertilized oocytes compared with nonoxynol-9 (conception in rabbits; 5% cellulose sulfate vs 2.2% commercial preparation of nonoxynol-9, intravaginal, rabbits): as effective or more effective than nonoxynol-9
risk of conception (conception in rabbits; 5% formulation applied intra-vaginally in rabbits, FIG. 2): reduces the risk of conception
penetration by spermatozoa into the cervical mucus (spermatozoa): impedes penetration by spermatozoa into the cervical mucus membrane in vitro, and to a significantly greater extent than dextran sulfate
concentration inhibiting infection of human cells by HSV (HSV): ≤ 0.00001%
binding of HIV to human cells (HIV [4]): inhibits the binding of HIV to human cells
conception in rabbits inseminated with treated spermatozoa (rabbit spermatozoa; pre-treatment of spermatozoa with 1% cellulose sulfate): effectively prevented conception
concentration showing antifertility effect on rabbit spermatozoa (rabbit spermatozoa; pre-treatment of spermatozoa, artificial insemination, FIG. 1): ≤ 0.1%
inhibition of chlamydial infection of HeLa cells [5]: 91%
concentration that can completely kill N. gonorrhea (N. gonorrhea): at least 0.01%
vaginal irritation [6]: minimal vaginal irritation
vaginal irritation in combination with nonoxynol-9 [6]: does not cause an increase in the vaginal irritation of nonoxynol-9
effect on normal vaginal flora, Lactobacilli (Lactobacilli): no effect

dextran sulfate
anti-fertility effect of treating spermatozoa (rabbit spermatozoa): little or no anti-fertility effect
HSV inhibition [1]: inhibit Herpes Simplex Virus (HSV)
HIV infectivity in vitro (HIV [2]): inhibit HIV infectivity in vitro
